# Measured values taken from US10882829B2, “Pharmaceutical compounds” (Sareum Limited, priority 2012, dated 2021).
# What was measured:
# Type in all cases: biochemical
# JAK2 = JAK2 (Homo sapiens (Human), UniProt O60674); experiment: JAK2 kinase inhibition assay (33P-ATP, Reaction Biology Corp.); conditions: substrate pEY, 120 min at room temperature, read-out: In Vitro Enzyme IC50 (nM) JAK2
# Experimental: (§1) Compounds of the invention were assayed for their ability to inhibit TYK2 kinase and other JAK kinases.
# (§2) Substrates and kinases used in the assays are identified in Table 2 below.
# JAK1 = JAK1 (Homo sapiens (Human), UniProt P23458); experiment: JAK1 kinase inhibition assay (33P-ATP, Reaction Biology Corp.); conditions: substrate pEY, 120 min at room temperature, read-out: In Vitro Enzyme IC50 (nM) JAK1
# JAK1, sequence (P23458 866-1154): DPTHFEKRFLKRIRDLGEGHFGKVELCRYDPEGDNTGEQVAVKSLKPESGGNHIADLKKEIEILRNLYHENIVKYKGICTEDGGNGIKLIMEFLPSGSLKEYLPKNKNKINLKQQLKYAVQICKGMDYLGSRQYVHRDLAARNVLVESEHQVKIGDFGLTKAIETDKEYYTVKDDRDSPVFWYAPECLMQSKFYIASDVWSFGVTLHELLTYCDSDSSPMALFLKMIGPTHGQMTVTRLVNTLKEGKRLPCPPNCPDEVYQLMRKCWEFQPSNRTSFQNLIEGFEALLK
# Experimental: as §1, §2
# JAK3 = JAK3 (Homo sapiens (Human), UniProt P52333); experiment: JAK3 kinase inhibition assay (33P-ATP, Reaction Biology Corp.); conditions: substrate JAK3tide, 120 min at room temperature, read-out: In Vitro Enzyme IC50 (nM) JAK3
# JAK3, sequence (P52333 781-1124): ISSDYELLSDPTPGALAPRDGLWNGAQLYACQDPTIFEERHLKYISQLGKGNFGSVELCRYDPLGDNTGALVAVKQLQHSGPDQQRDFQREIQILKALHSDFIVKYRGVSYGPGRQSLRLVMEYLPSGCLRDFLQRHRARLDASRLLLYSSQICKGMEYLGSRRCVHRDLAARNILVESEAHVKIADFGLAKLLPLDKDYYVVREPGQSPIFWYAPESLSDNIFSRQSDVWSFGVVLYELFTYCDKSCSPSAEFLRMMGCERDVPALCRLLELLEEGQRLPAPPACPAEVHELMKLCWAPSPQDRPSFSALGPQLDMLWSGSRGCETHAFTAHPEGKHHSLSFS
# Experimental: as §1, §2
# TYK2 kinase = TYK2 kinase (Homo sapiens (Human), UniProt P29597); experiment: TYK2 kinase inhibition assay (33P-ATP, Reaction Biology Corp.); conditions: substrate AXLtide, 120 min at room temperature, read-out: In Vitro Enzyme IC50 (nM) TYK2
# TYK2 kinase, sequence (P29597 833-1187): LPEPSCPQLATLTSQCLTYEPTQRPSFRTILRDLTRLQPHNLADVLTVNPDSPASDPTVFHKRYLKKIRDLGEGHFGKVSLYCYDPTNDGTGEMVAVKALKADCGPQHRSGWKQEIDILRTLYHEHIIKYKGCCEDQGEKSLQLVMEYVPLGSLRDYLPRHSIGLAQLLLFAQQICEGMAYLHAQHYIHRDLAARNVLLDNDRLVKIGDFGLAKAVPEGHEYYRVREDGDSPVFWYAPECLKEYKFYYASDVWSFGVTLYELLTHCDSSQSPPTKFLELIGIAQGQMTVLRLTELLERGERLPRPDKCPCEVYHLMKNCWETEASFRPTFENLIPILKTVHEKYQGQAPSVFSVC
# Experimental: as §1, §2
# JAK2, sequence (O60674 809-1132): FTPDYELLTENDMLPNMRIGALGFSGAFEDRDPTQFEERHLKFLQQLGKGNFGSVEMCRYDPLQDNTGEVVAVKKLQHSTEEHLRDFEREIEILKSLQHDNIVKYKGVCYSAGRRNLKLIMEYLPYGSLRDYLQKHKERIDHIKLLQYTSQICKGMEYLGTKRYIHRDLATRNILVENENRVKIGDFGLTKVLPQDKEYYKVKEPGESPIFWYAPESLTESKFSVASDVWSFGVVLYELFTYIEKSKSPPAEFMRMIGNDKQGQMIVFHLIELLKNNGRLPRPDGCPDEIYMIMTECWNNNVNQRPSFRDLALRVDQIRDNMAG
SMILES,IC50 (JAK2) [nM],IC50 (JAK1) [nM],IC50 (JAK3) [nM],IC50 (TYK2 kinase) [nM]
"NCCCNC(=O)c1ccc(Nc2oc(-c3c(F)cccc3F)nc2C(N)=O)cc1 [Example 6, 5-(4-((3-aminopropyl)carbamoyl)phenylamino)-2-(2,6-difluorophenyl)oxazole-4-carboxamide]",297,192,472,25
"NC(=O)c1nc(-c2c(F)cccc2F)oc1Nc1ccc(C(=O)N[C@@H]2CCCNC2)cc1 [Example 7, (R)-2-(2,6-difluorophenyl)-5-(4-(piperidin-3-ylcarbamoyl)phenylamino)oxazole-4-carboxamide]",261,202,419,9.8
"NC(=O)c1nc(-c2c(F)cccc2F)oc1Nc1ccc(C(=O)N[C@H]2CCCNC2)cc1 [Example 8, (S)-2-(2,6-difluorophenyl)-5-(4-(piperidin-3-ylcarbamoyl)phenylamino)oxazole-4-carboxamide]",268,201,408,12.9
"NC(=O)c1nc(-c2c(F)cccc2F)oc1Nc1ccc(C(=O)N2CCOCC2)cc1 [Example 9, 2-(2,6-difluorophenyl)-5-(4-(morpholine-4-carbonyl)phenylamino)oxazole-4-carboxamide]",267,75.6,423,22.7
"CNCCNC(=O)c1ccc(Nc2oc(-c3c(F)cccc3F)nc2C(N)=O)cc1 [Example 10, 5-(4-((2-(methylamino)ethyl)carbamoyl)phenylamino)-2-(2,6-difluorophenyl) oxazole-4-carboxamide]",311,183,397,20.5
"CNCCCNC(=O)c1ccc(Nc2oc(-c3c(F)cccc3F)nc2C(N)=O)cc1 [Example 11, 5-(4-((3-(methylamino)propyl)carbamoyl)phenylamino)-2-(2,6-difluorophenyl) oxazole-4-carboxamide]",338,190,388,15.1
"NC(=O)c1nc(-c2c(F)cccc2F)oc1Nc1ccc(C(=O)N[C@@H]2CCNC2)cc1 [Example 12, (R)-2-(2,6-difluorophenyl)-5-(4-(pyrrolidin-3-ylcarbamoyl)phenylamino)oxazole-4-carboxamide]",292,169,346,23.4
"NC(=O)c1nc(-c2c(F)cccc2F)oc1Nc1ccc(C(=O)N[C@H]2CCNC2)cc1 [Example 13, (S)-2-(2,6-difluorophenyl)-5-(4-(pyrrolidin-3-ylcarbamoyl)phenylamino)oxazole-4-carboxamide]",182,123,342,11.2
"NC(=O)c1nc(-c2c(F)cccc2F)oc1Nc1ccc(C(=O)N2CCC[C@@H]2CO)cc1 [Example 14, (R)-2-(2,6-difluorophenyl)-5-(4-(2-(hydroxymethyl)pyrrolidine-1-carbonyl)phenylamino)oxazole-4-carboxamide]",36,67.2,126,9.6
"NC(=O)c1nc(-c2c(F)cccc2F)oc1Nc1ccc(C(=O)NCCO)cc1 [Example 15, 5-(4-((2-hydroxyethyl)carbamoyl)phenylamino)-2-(2,6-difluorophenyl)oxazole-4-carboxamide]",101,41.1,195,7.5
"NC(=O)c1nc(-c2c(F)cccc2F)oc1Nc1ccc(C(=O)NCCCO)cc1 [Example 16, 5-(4-((3-hydroxypropyl)carbamoyl)phenylamino)-2-(2,6-difluorophenyl)oxazole-4-carboxamide]",119,58.1,199,8.4
"NC(=O)c1nc(-c2c(F)cccc2F)oc1Nc1ccc(C(=O)NC2CCNCC2)cc1 [Example 17, 2-(2,6-difluorophenyl)-5-(4-(piperidin-4-ylcarbamoyl)phenylamino)oxazole-4-carboxamide]",167,153,99.2,13.7
"CN1CCC(NC(=O)c2ccc(Nc3oc(-c4c(F)cccc4F)nc3C(N)=O)cc2)CC1 [Example 18, 5-(4-((1-methylpiperidin-4-yl)carbamoyl)phenylamino)-2-(2,6-difluorophenyl) oxazole-4-carboxamide]",192,118,165,13.8

# Other lines, results leading:
IC50 (JAK2) [nM],IC50 (JAK1) [nM],IC50 (JAK3) [nM],IC50 (TYK2 kinase) [nM],SMILES
235,90.2,405,13.5,"CS(=O)(=O)c1ccc(Nc2oc(-c3c(F)cccc3F)nc2C(N)=O)cc1 [Example 1, 2-(2,6-difluorophenyl)-5-(4-(methylsulfonyl)phenylamino)oxazole-4-carboxamide]"
147,78.2,419,14.6,"NC(=O)c1nc(-c2c(F)cccc2F)oc1Nc1ccc(S(N)(=O)=O)cc1 [Example 2, 2-(2,6-difluorophenyl)-5-(4-sulfamoylphenylamino)oxazole-4-carboxamide]"
95,47.6,359,5.3,"CN(C)S(=O)(=O)c1ccc(Nc2oc(-c3c(F)cccc3F)nc2C(N)=O)cc1 [Example 3, 2-(2,6-difluorophenyl)-5-(4-(N,N-dimethylsulfamoyl)phenylamino)oxazole-4-carboxamide]"
109,65.6,387,13.8,"CNS(=O)(=O)c1ccc(Nc2oc(-c3c(F)cccc3F)nc2C(N)=O)cc1 [Example 4, 2-(2,6-difluorophenyl)-5-(4-(N′-methylsulfamoyl)phenylamino)oxazole-4-carboxamide]"
112,88.6,219,9.2,"CN(C)C(=O)c1ccc(Nc2oc(-c3c(F)cccc3F)nc2C(N)=O)cc1 [Example 5, 2-(2,6-difluorophenyl)-5-(4-(dimethylcarbamoyl)phenylamino)oxazole-4-carboxamide]"
87.7,21.9,214,2.3,"CS(=O)(=O)c1ccc(Nc2oc(-c3c(Cl)cccc3Cl)nc2C(N)=O)cc1 [Example 19, 2-(2,6-Dichloro-phenyl)-5-(4-methanesulfonyl-phenylamino)-oxazole-4-carboxylic acid amide]"
72.6,28.7,165,2.7,"CS(=O)(=O)c1ccc(Nc2oc(-c3c(F)cccc3Cl)nc2C(N)=O)cc1 [Example 20, 2-(2-Chloro-6-fluoro-phenyl)-5-(4-methanesulfonyl-phenylamino)-oxazole-4-carboxylic acid amide]"
412,241,2180,68.3,"CS(=O)(=O)c1ccc(Nc2oc(-c3c(F)cc(F)cc3F)nc2C(N)=O)cc1 [Example 21, 5-(4-Methanesulfonyl-phenylamino)-2-(2,4,6-trifluoro-phenyl)-oxazole-4-carboxylic acid amide]"
663,843,5500,183,"CS(=O)(=O)c1ccc(Nc2oc(-c3cc(F)ccc3F)nc2C(N)=O)cc1 [Example 22, 2-(2,5-Difluoro-phenyl)-5-(4-methanesulfonyl-phenylamino)-oxazole-4-carboxylic acid amide]"
